In patent US20110039721A1, “METHOD FOR PREDICTION ABOUT CARCINOGENICITY OF SUBSTANCE IN RODENT” (Chemicals Evaluation and Research Institute, priority 2007, published 2011):

Tests used:
liver = settings: classification of the substance (Cr+/Cr−); cited from earlier work
[1] = classification of the substance (M+/M−); cited from earlier work
[2] = tested on: mRNA expressed from the genes (A) to (D) in rat liver; experiment: Behavior of genes (mRNA expression level, oligo-DNA microarray) in rat liver after 28-day oral administration; assay type: in vivo; settings: mRNA vs vehicle control group; for Behavior of gene caused by administration of chemical substance, Gene No. 4846 / Behavior of gene caused by administration of chemical substance, Gene No. 2026 / Behavior of gene caused by administration of chemical substance, Gene No. 4218 / Behavior of gene caused by administration of chemical substance, Gene No. 6182 / Behavior of gene caused by administration of chemical substance, Gene No. 5600: gene group (A); for Behavior of gene caused by administration of chemical substance, Gene No. 4846: Unigene No. Rn.144554; for Behavior of gene caused by administration of chemical substance, Gene No. 2026 / Behavior of gene caused by administration of chemical substance, Gene No. 4218: Unigene No. Rn.167075; for Behavior of gene caused by administration of chemical substance, Gene No. 6182: Unigene No. Rn.5834; for Behavior of gene caused by administration of chemical substance, Gene No. 5600: Unigene No. Rn.9836; for Behavior of gene caused by administration of chemical substance, Gene No. 1494 / Behavior of gene caused by administration of chemical substance, Gene No. 2045 / Behavior of gene caused by administration of chemical substance, Gene No. 2203: gene group (B); for Behavior of gene caused by administration of chemical substance, Gene No. 1494: Unigene No. Rn.1430; for Behavior of gene caused by administration of chemical substance, Gene No. 2045: Unigene No. Rn.19329; for Behavior of gene caused by administration of chemical substance, Gene No. 2203: Unigene No. Rn.21240; for Behavior of gene caused by administration of chemical substance, Gene No. 533 / Behavior of gene caused by administration of chemical substance, Gene No. 725 / Behavior of gene caused by administration of chemical substance, Gene No. 1163 / Behavior of gene caused by administration of chemical substance, Gene No. 4973 / Behavior of gene caused by administration of chemical substance, Gene No. 4095 / Behavior of gene caused by administration of chemical substance, Gene No. 1334 / Behavior of gene caused by administration of chemical substance, Gene No. 6620 / Behavior of gene caused by administration of chemical substance, Gene No. 6303 / Behavior of gene caused by administration of chemical substance, Gene No. 5878 / Behavior of gene caused by administration of chemical substance, Gene No. 1131 / Behavior of gene caused by administration of chemical substance, Gene No. 1562 / Behavior of gene caused by administration of chemical substance, Gene No. 1741 / Behavior of gene caused by administration of chemical substance, Gene No. 893 / Behavior of gene caused by administration of chemical substance, Gene No. 6026 / Behavior of gene caused by administration of chemical substance, Gene No. 154 / Behavior of gene caused by administration of chemical substance, Gene No. 1993 / Behavior of gene caused by administration of chemical substance, Gene No. 813 / Behavior of gene caused by administration of chemical substance, Gene No. 2494 / Behavior of gene caused by administration of chemical substance, Gene No. 2546 / Behavior of gene caused by administration of chemical substance, Gene No. 3776 / Behavior of gene caused by administration of chemical substance, Gene No. 3929 / Behavior of gene caused by administration of chemical substance, Gene No. 1119 / Behavior of gene caused by administration of chemical substance, Gene No. 6742 / Behavior of gene caused by administration of chemical substance, Gene No. 5634: gene group (C); for Behavior of gene caused by administration of chemical substance, Gene No. 533: Unigene No. Rn.106184; for Behavior of gene caused by administration of chemical substance, Gene No. 725: Unigene No. Rn.108075; for Behavior of gene caused by administration of chemical substance, Gene No. 1163: Unigene No. Rn.11766; for Behavior of gene caused by administration of chemical substance, Gene No. 4973: Unigene No. Rn.118529; for Behavior of gene caused by administration of chemical substance, Gene No. 4095: Unigene No. Rn.119024; for Behavior of gene caused by administration of chemical substance, Gene No. 1334 / Behavior of gene caused by administration of chemical substance, Gene No. 6620: Unigene No. Rn.120914; for Behavior of gene caused by administration of chemical substance, Gene No. 6303: Unigene No. Rn.123063; for Behavior of gene caused by administration of chemical substance, Gene No. 5878: Unigene No. Rn.143213; for Behavior of gene caused by administration of chemical substance, Gene No. 1131: Unigene No. Rn.144946; for Behavior of gene caused by administration of chemical substance, Gene No. 1562: Unigene No. Rn.14744; for Behavior of gene caused by administration of chemical substance, Gene No. 1741: Unigene No. Rn.1647; for Behavior of gene caused by administration of chemical substance, Gene No. 893: Unigene No. Rn.164817; for Behavior of gene caused by administration of chemical substance, Gene No. 6026: Unigene No. Rn.167685; for Behavior of gene caused by administration of chemical substance, Gene No. 154: Unigene No. Rn.185941; for Behavior of gene caused by administration of chemical substance, Gene No. 1993: Unigene No. Rn.18728; for Behavior of gene caused by administration of chemical substance, Gene No. 813: Unigene No. Rn.201760; for Behavior of gene caused by administration of chemical substance, Gene No. 2494: Unigene No. Rn.23969; for Behavior of gene caused by administration of chemical substance, Gene No. 2546: Unigene No. Rn.24561; for Behavior of gene caused by administration of chemical substance, Gene No. 3776: Unigene No. Rn.43232; for Behavior of gene caused by administration of chemical substance, Gene No. 3929: Unigene No. Rn.4620; for Behavior of gene caused by administration of chemical substance, Gene No. 1119: Unigene No. Rn.9757; for Behavior of gene caused by administration of chemical substance, Gene No. 6742: Unigene No. Rn.9779; for Behavior of gene caused by administration of chemical substance, Gene No. 5634: Unigene No. Rn.9862; for Behavior of gene caused by administration of chemical substance, Gene No. 5726: gene group (D), Unigene No. Rn.9939
Summary of the method: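 Male F344 SPF rats, 5 weeks old, four per group, received carcinogens, non-carcinogens or solvent vehicle by oral gavage once daily for 28 days. Liver total RNA was then extracted. Changes of ≥1.5-fold or ≤1/1.5 versus vehicle control, in a consistent direction across carcinogens, counted as significant.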

rodent = settings: classification of the substance (C+/C−); cited from earlier work

Row | SMILES | Liver carcinogenicity (liver) | Mutagenicity by Ames test [1] | Behavior of gene caused by administration of chemical substance, Gene No. 4846 [2] | Behavior of gene caused by administration of chemical substance, Gene No. 2026 [2] | Behavior of gene caused by administration of chemical substance, Gene No. 4218 [2] | Behavior of gene caused by administration of chemical substance, Gene No. 6182 [2] | Behavior of gene caused by administration of chemical substance, Gene No. 5600 [2] | Behavior of gene caused by administration of chemical substance, Gene No. 1494 [2] | Behavior of gene caused by administration of chemical substance, Gene No. 2045 [2] | Behavior of gene caused by administration of chemical substance, Gene No. 2203 [2] | Behavior of gene caused by administration of chemical substance, Gene No. 533 [2] | Behavior of gene caused by administration of chemical substance, Gene No. 725 [2] | Behavior of gene caused by administration of chemical substance, Gene No. 1163 [2] | Behavior of gene caused by administration of chemical substance, Gene No. 4973 [2] | Behavior of gene caused by administration of chemical substance, Gene No. 4095 [2] | Behavior of gene caused by administration of chemical substance, Gene No. 1334 [2] | Behavior of gene caused by administration of chemical substance, Gene No. 6620 [2] | Behavior of gene caused by administration of chemical substance, Gene No. 6303 [2] | Behavior of gene caused by administration of chemical substance, Gene No. 5878 [2] | Behavior of gene caused by administration of chemical substance, Gene No. 1131 [2] | further results
1 | C#C[C@]1(O)CC[C@H]2[C@@H]3CCc4cc(O)ccc4[C@H]3CC[C@@]21C [TS019, Ethinylestradiol] | Cr+ | M− | + | − | − | + | − | − | − | + | + | + | + | + | + | + | + | + | + | + | Behavior of gene caused by administration of chemical substance, Gene No. 1562 [2]: +; Behavior of gene caused by administration of chemical substance, Gene No. 1741 [2]: +; Behavior of gene caused by administration of chemical substance, Gene No. 893 [2]: +; Behavior of gene caused by administration of chemical substance, Gene No. 6026 [2]: +; Behavior of gene caused by administration of chemical substance, Gene No. 154 [2]: +; Behavior of gene caused by administration of chemical substance, Gene No. 1993 [2]: +; Behavior of gene caused by administration of chemical substance, Gene No. 813 [2]: −; Behavior of gene caused by administration of chemical substance, Gene No. 2494 [2]: +; Behavior of gene caused by administration of chemical substance, Gene No. 2546 [2]: +; Behavior of gene caused by administration of chemical substance, Gene No. 3776 [2]: +; Behavior of gene caused by administration of chemical substance, Gene No. 3929 [2]: +; Behavior of gene caused by administration of chemical substance, Gene No. 1119 [2]: +; Behavior of gene caused by administration of chemical substance, Gene No. 6742 [2]: −; Behavior of gene caused by administration of chemical substance, Gene No. 5634 [2]: +; Behavior of gene caused by administration of chemical substance, Gene No. 5726 [2]: −; Carcinogenicity (rodent): C+
2 | ClC(Cl)C(Cl)(Cl)Cl [TS055, Pentachloroethane] | Cr− | M− | − | − | − | − | − | + | − | − | + | − | + | + | + | + | + | + | + | + | Behavior of gene caused by administration of chemical substance, Gene No. 1562 [2]: +; Behavior of gene caused by administration of chemical substance, Gene No. 1741 [2]: +; Behavior of gene caused by administration of chemical substance, Gene No. 893 [2]: +; Behavior of gene caused by administration of chemical substance, Gene No. 6026 [2]: +; Behavior of gene caused by administration of chemical substance, Gene No. 154 [2]: +; Behavior of gene caused by administration of chemical substance, Gene No. 1993 [2]: +; Behavior of gene caused by administration of chemical substance, Gene No. 813 [2]: +; Behavior of gene caused by administration of chemical substance, Gene No. 2494 [2]: +; Behavior of gene caused by administration of chemical substance, Gene No. 2546 [2]: +; Behavior of gene caused by administration of chemical substance, Gene No. 3776 [2]: +; Behavior of gene caused by administration of chemical substance, Gene No. 3929 [2]: +; Behavior of gene caused by administration of chemical substance, Gene No. 1119 [2]: +; Behavior of gene caused by administration of chemical substance, Gene No. 6742 [2]: +; Behavior of gene caused by administration of chemical substance, Gene No. 5634 [2]: +; Behavior of gene caused by administration of chemical substance, Gene No. 5726 [2]: +; Carcinogenicity (rodent): C+
3 | Clc1ccc(Cl)cc1 [TS026, 1,4-Dichlorobenzene] | Cr− | M− | − | − | − | − | − | + | − | − | + | − | − | − | + | − | − | + | − | − | Behavior of gene caused by administration of chemical substance, Gene No. 1562 [2]: −; Behavior of gene caused by administration of chemical substance, Gene No. 1741 [2]: −; Behavior of gene caused by administration of chemical substance, Gene No. 893 [2]: −; Behavior of gene caused by administration of chemical substance, Gene No. 6026 [2]: +; Behavior of gene caused by administration of chemical substance, Gene No. 154 [2]: −; Behavior of gene caused by administration of chemical substance, Gene No. 1993 [2]: −; Behavior of gene caused by administration of chemical substance, Gene No. 813 [2]: −; Behavior of gene caused by administration of chemical substance, Gene No. 2494 [2]: −; Behavior of gene caused by administration of chemical substance, Gene No. 2546 [2]: −; Behavior of gene caused by administration of chemical substance, Gene No. 3776 [2]: −; Behavior of gene caused by administration of chemical substance, Gene No. 3929 [2]: −; Behavior of gene caused by administration of chemical substance, Gene No. 1119 [2]: −; Behavior of gene caused by administration of chemical substance, Gene No. 6742 [2]: −; Behavior of gene caused by administration of chemical substance, Gene No. 5634 [2]: −; Behavior of gene caused by administration of chemical substance, Gene No. 5726 [2]: +; Carcinogenicity (rodent): C+
